Laboratory results: ChEMBL document CHEMBL1806355, “Synthesis and evaluation of 1-cyclopropyl-2-thioalkyl-8-methoxy fluoroquinolones” (2011)
In brackets after ≈: the same amount, converted by molar mass. Activity calls are given as the source filed them. The calls are words filed in the database; no cut-off is given here.

Legend:
[1] = tested on: Escherichia coli; experiment: Antibacterial activity against Escherichia coli KD65; type: functional
[2] = tested on: Escherichia coli; experiment: Antibacterial activity against tolC knockout Escherichia coli KD1397; type: functional
[3] = tested on: Mycolicibacterium smegmatis; experiment: Antibacterial activity against Mycobacterium smegmatis KD1163; type: functional
[4] = Inhibition of DNA gyrase

SMILES | MIC [1] [µg/mL] | MIC [2] [µg/mL] | MIC [3] [µg/mL] | inhibition [4]
CCSc1c(C(=O)O)c(=O)c2cc(F)c(N3CCNCC3)c(OC)c2n1C1CC1 | 200 (≈ 475 µM) | 12.5 (≈ 29.7 µM) | > 200 | Active
COc1c(N2C[C@@H]3CCCN[C@@H]3C2)c(F)cc2c(=O)c(C(=O)O)cn(C3CC3)c12 [MOXIFLOXACIN] | 0.156 (≈ 0.389 µM) | 0.004 (≈ 0.00996 µM) | 0.08 (≈ 0.199 µM) | –
COc1c(N2C[C@@H]3CCCN[C@@H]3C2)c(F)cc2c(=O)cc(SC(C)C)n(C3CC3)c12 | > 50 | 50 (≈ 116 µM) | 50 (≈ 116 µM) | Active
CC1Sc2c(C(=O)O)c(=O)c3cc(F)c(N4CCNCC4)cc3n21 (stereo unspecified) [ULIFLOXACIN] | 0.062 (≈ 0.177 µM) | 0.016 (≈ 0.0458 µM) | 3.13 (≈ 8.96 µM) | –
O=c1ccn(C2CC2)c2cc(N3CCNCC3)c(F)cc12 | 50 (≈ 174 µM) | 1.56 (≈ 5.43 µM) | 6.25 (≈ 21.8 µM) | –
CC1Sc2cc(=O)c3cc(F)c(N4CCNCC4)cc3n21 (stereo unspecified) [DESCARBOXYULIFLOXACIN] | > 200 | 200 (≈ 655 µM) | 200 (≈ 655 µM) | –
COc1c(N2C[C@@H]3CCCN[C@@H]3C2)c(F)cc2c(=O)ccn(C3CC3)c12 | > 200 | 100 (≈ 280 µM) | > 200 | –
COc1c(N2CCNCC2)c(F)cc2c(=O)cc(SC(C)C)n(C3CC3)c12 | > 50 | > 50 | > 50 | Active
CCSc1cc(=O)c2cc(F)c(N3C[C@@H]4CCCN[C@@H]4C3)c(OC)c2n1C1CC1 | > 200 | 100 (≈ 239 µM) | > 200 | Active
O=C(O)c1cn(C2CC2)c2cc(N3CCNCC3)c(F)cc2c1=O [CIPROFLOXACIN] | 0.04 (≈ 0.121 µM) | – | 0.156 (≈ 0.471 µM) | –
CCSc1c(C(=O)O)c(=O)c2cc(F)c(N3C[C@@H]4CCCN[C@@H]4C3)c(OC)c2n1C1CC1 | > 50 | > 50 | 50 (≈ 108 µM) | Active
CCSc1cc(=O)c2cc(F)c(N3CCNCC3)c(OC)c2n1C1CC1 | > 50 | 25 (≈ 66.2 µM) | > 50 | Active
